Data published in ChEMBL document CHEMBL4706524, “Discovery of sulfonyl hydrazone derivative as a new selective PDE4A and PDE4D inhibitor by lead-optimization approach on the prototype LASSBio-448: In vitro and in vivo preclinical studies” (Eur J Med Chem, 2020).

Experiments:
[1] = pampa, 8 h
in vitro [2] = settings: PAMPA
Description: Permeability of the compound by PAMPA-TGI assay

in vitro [3] = settings: PAMPA; remark: listed apart in the source
[4] = target: T1, 3',5'-cyclic-AMP phosphodiesterase 4D (Homo sapiens, UniProt Q08499); assay: Inhibition of human recombinant PDE4D3 using FAM-cAMP as substrate at 10 uM measured after 1 hr by IMAP TR-FRET assay
Homo sapiens [5] = organism: Homo sapiens; assay: Inhibition of human recombinant PDE4A1A using FAM-cAMP as substrate at 10 uM measured after 1 hr by IMAP TR-FRET assay
[6] = target: 3',5'-cyclic-AMP phosphodiesterase 4B (Homo sapiens, UniProt Q07343); assay: Inhibition of human recombinant PDE4B1 using FAM-cAMP as substrate at 10 uM measured after 1 hr by IMAP TR-FRET assay
[7] = Chemical stability of the compound in KCl/HCl buffer at pH 2.0 measured upto 120 mins by HPLC-DAD analysis; settings: pH 2, 2 h
[8] = target: 3',5'-cyclic-AMP phosphodiesterase 4C (Homo sapiens, UniProt Q08493); assay: Inhibition of human recombinant PDE4C using FAM-cAMP as substrate at 10 uM measured after 1 hr by IMAP TR-FRET assay
[9] = Chemical stability of the compound in phosphate buffer at pH 7.4 measured upto 120 mins by HPLC-DAD analysis; assay type: physicochemical; settings: pH 7.4, 2 h
Mus musculus [10] = assay: Antiinflammatory activity against A/J mouse assessed as decrease in LPS-induced airway hyperreactivity at 6.25 umol/kg, po treated via gavage for 1 hr before LPS stimulation measured after 24 hrs by whole body plethysmography relative to control; assay type: functional; settings: 25 h
Mus musculus [11] = assay: Antiinflammatory activity against A/J mouse assessed as decrease in LPS-induced TNFalpha production in lungs at 6.25 umol/kg, po treated via gavage for 1 hr before LPS stimulation and measured after 24 hrs by ELISA relative to control; assay type: functional; settings: 25 h
Mus musculus [12] = assay: Antiinflammatory activity against A/J mouse assessed as decrease in LPS-induced airway hyperreactivity at 25 umol/kg, po treated via gavage for 1 hr before LPS stimulation measured after 24 hrs by whole body plethysmography relative to control; assay type: functional; settings: 25 h
Homo sapiens [13] = organism: Homo sapiens; assay: Inhibition of human recombinant PDE4A1A using FAM-cAMP as substrate measured after 1 hr by IMAP TR-FRET assay relative to control
Mus musculus [14] = assay: Antiinflammatory activity against A/J mouse assessed as decrease in LPS-induced TNFalpha production in lungs at 25 umol/kg, po treated via gavage for 1 hr before LPS stimulation and measured after 24 hrs by ELISA relative to control; assay type: functional; settings: 25 h
[15] = target: T1, 3',5'-cyclic-AMP phosphodiesterase 4D; assay: Inhibition of human recombinant PDE4D3 using FAM-cAMP as substrate measured after 1 hr by IMAP TR-FRET assay
[16] = target: T1, 3',5'-cyclic-AMP phosphodiesterase 4D; assay: Inhibition of human recombinant PDE4D3 using FAM-cAMP as substrate measured after 1 hr by IMAP TR-FRET assay relative to control
Trachea [17] = assay: […] activity in non-sensitized guinea pig-derived trachea assessed as decrease in CCh-induced tracheal tonic contraction in presence of functional epithelium; assay type: tissue-based; settings: Cavia porcellus
Trachea [18] = assay: […] activity in OVA-sensitized guinea pig-derived trachea assessed as decrease in CCh-induced tracheal tonic contraction in presence of functional epithelium treated with compound after contraction stabilised; assay type: tissue-based; settings: Cavia porcellus
Trachea [19] = assay: […] activity in non-sensitized guinea pig-derived trachea assessed as decrease in CCh-induced tracheal tonic contraction in absence of functional epithelium treated with compound after contraction stabilised; assay type: tissue-based; settings: Cavia porcellus
in vitro [20] = settings: PAMPA; remark: listed apart in the source
Description: Permeability of the compound incubated for 165 mins by PAMPA-BBB assay

[21] = Inhibition of human recombinant PDE4A1A using FAM-cAMP as substrate measured after 1 hr by IMAP TR-FRET assay
Trachea [22] = assay: […] activity in OVA-sensitized guinea pig-derived trachea assessed as decrease in CCh-induced tracheal tonic contraction in absence of functional epithelium treated with compound after contraction stabilised; assay type: tissue-based; settings: Cavia porcellus

Sequence of 3',5'-cyclic-AMP phosphodiesterase 4C (Q08493 whole entry): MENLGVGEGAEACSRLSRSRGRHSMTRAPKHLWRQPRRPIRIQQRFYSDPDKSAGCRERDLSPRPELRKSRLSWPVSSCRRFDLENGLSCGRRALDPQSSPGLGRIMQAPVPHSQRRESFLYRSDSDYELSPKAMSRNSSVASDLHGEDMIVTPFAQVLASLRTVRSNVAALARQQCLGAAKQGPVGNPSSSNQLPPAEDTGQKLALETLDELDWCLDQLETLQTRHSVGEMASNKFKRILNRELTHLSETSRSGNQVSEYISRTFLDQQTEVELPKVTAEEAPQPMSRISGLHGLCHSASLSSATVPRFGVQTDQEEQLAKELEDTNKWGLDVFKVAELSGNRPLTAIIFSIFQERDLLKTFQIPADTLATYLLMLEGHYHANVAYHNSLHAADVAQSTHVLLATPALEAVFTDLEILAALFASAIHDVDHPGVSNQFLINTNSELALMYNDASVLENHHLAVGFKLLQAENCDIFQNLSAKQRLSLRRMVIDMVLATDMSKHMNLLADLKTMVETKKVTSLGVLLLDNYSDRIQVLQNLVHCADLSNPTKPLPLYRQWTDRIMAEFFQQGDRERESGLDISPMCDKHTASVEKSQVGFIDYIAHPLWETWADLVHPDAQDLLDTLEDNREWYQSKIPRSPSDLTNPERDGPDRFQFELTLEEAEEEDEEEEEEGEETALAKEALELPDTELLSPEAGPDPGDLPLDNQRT
T1 sequence (Q08499 whole entry): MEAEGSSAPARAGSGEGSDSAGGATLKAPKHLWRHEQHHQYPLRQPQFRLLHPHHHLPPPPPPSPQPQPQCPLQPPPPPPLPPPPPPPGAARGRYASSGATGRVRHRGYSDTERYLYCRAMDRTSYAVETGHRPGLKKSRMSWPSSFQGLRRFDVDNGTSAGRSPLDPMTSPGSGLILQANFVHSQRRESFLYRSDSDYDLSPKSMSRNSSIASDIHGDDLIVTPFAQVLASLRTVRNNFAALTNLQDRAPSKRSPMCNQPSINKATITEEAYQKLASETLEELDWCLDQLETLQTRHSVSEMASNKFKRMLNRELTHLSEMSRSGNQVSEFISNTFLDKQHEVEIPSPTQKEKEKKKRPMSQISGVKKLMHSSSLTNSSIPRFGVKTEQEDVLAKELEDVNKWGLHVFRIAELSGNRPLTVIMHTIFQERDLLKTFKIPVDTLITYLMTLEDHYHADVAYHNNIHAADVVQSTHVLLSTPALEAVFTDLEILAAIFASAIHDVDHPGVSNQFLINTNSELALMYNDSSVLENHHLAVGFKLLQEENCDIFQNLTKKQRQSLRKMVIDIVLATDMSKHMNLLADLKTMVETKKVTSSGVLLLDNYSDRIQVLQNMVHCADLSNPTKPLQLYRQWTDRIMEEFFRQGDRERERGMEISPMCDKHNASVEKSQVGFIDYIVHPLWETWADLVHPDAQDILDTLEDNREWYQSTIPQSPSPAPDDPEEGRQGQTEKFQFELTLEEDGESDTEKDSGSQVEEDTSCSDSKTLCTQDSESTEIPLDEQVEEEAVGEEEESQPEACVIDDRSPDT
Sequence of 3',5'-cyclic-AMP phosphodiesterase 4B (Q07343 whole entry): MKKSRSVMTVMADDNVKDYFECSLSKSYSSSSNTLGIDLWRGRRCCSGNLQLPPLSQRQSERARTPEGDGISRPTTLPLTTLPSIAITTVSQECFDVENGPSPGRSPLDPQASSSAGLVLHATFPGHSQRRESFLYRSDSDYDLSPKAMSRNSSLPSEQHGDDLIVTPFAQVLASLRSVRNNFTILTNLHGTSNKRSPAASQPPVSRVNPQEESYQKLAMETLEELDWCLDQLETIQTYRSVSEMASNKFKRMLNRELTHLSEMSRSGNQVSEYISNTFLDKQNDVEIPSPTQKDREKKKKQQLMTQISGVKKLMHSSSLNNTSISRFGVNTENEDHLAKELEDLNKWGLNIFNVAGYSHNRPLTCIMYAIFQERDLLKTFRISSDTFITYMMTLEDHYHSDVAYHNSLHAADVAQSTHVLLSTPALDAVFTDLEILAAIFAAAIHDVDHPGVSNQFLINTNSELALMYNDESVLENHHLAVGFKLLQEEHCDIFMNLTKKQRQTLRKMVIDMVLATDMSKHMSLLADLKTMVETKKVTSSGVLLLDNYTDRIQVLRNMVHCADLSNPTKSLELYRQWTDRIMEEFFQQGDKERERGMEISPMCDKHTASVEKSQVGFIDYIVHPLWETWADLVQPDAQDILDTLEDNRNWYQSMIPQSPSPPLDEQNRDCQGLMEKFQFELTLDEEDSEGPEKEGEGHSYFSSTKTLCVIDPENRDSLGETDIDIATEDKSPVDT

Row | inhibition [4] [%] | inhibition (Homo sapiens [5]) [%] | inhibition [6] [%] | Stabilty [7] | inhibition [8] [%] | Stabilty [9] | Structure (SMILES) | other results
1 | 9.1 | 30.4 | < 5 | Stable | 12.1 | Stable | COc1ccc(CCNS(=O)(=O)c2ccc3ccccc3c2)cc1OC | –
2 | 23.8 | 11 | < 5 | Stable | 20.7 | Stable | COc1ccc(S(=O)(=O)NCCc2ccc(OC)c(OC)c2)cc1 | –
3 | < 5 | 11.8 | < 5 | Stable | 21.3 | Stable | COc1ccc(CCNS(=O)(=O)c2cc3c(cc2C)OCO3)cc1OC | EC50 (Trachea [17]): 29.5 µM; EC50 (Trachea [18]): 24.5 µM; EC50 (Trachea [19]): 43.7 µM; Papp at 2.75 h (in vitro [20]): 3.46 ×10⁻⁶ cm/s; IC50 [21]: 0.7 µM; EC50 (Trachea [22]): 25.1 µM
4 | < 5 | 6.1 | < 5 | Stable | < 5 | Stable | COc1ccc(CCNS(=O)(=O)c2ccccc2C)cc1OC | –
5 | 8.8 | < 5 | < 5 | Unstable | < 5 | Stable | COc1ccc(/C=N/NS(=O)(=O)c2cc3c(cc2C)OCO3)cc1OC | –
6 | 13.6 | 11.3 | < 5 | Stable | 26 | Stable | COc1ccc(CCNS(=O)(=O)c2ccc(OC)c(OC)c2)cc1OC | –
7 | 90.7 | 90.4 | 22.7 | Unstable | 25.5 | Stable | COc1ccc(/C=N/N(C)S(=O)(=O)c2cc3c(cc2C)OCO3)cc1OC | inhibition in vivo at 6.25 µmol/kg (Mus musculus [10]): 99%; inhibition in vivo at 6.25 µmol/kg (Mus musculus [11]): 48.7%; EC50 (Trachea [17]): 8.32 µM; Drug absorption [1]: 99.3%; inhibition in vivo at 25 µmol/kg (Mus musculus [12]): 97%; EC50 (Trachea [18]): 6.46 µM; EC50 (Trachea [19]): 8.13 µM; IC50 [21]: 0.5 µM; Papp at 8 h (in vitro [3]): 13.1 ×10⁻⁶ cm/s; Emax (Homo sapiens [13]): 100%; inhibition in vivo at 25 µmol/kg (Mus musculus [14]): 85.9%; IC50 [15]: 0.7 µM; EC50 (Trachea [22]): 3.16 µM; Emax [16]: 93%
8 | < 5 | < 5 | 13.8 | Stable | < 5 | Stable | COc1ccc(CCNS(=O)(=O)c2ccc([N+](=O)[O-])cc2)cc1OC | –
9 | 19.7 | < 5 | < 5 | Unstable | 29 | Stable | COc1ccc(/C=N/NS(=O)(=O)c2ccc(C(F)(F)F)cc2)cc1OC | –

Second part, the molecule before the results:

Row | Structure (SMILES) | inhibition [4] [%] | inhibition (Homo sapiens [5]) [%] | inhibition [6] [%] | Stabilty [7] | inhibition [8] [%] | Stabilty [9] | other results
10 | CC(=O)N1CCN(c2ccc(OCC3COC(Cn4ccnc4)(c4ccc(Cl)cc4Cl)O3)cc2)CC1 (configuration not stated) [KETOCONAZOLE] | – | – | – | – | – | – | Drug absorption [1]: 84.68%; Papp (in vitro [2]): 3.3 ×10⁻⁶ cm/s; Papp at 8 h (in vitro [3]): 4.93 ×10⁻⁶ cm/s
11 | COc1ccc(S(=O)(=O)N/N=C/c2ccc(OC)c(OC)c2)cc1 | 20.2 | 35.2 | < 5 | Unstable | 40.2 | Stable | –
12 | COc1ccc(CCN(C)S(=O)(=O)c2ccccc2C)cc1OC | 27.6 | 25.9 | 26.5 | Stable | < 5 | Stable | –
13 | CNC(=C[N+](=O)[O-])NCCSCc1ccc(CN(C)C)o1 [RANITIDINE] | – | – | – | – | – | – | Drug absorption [1]: 13.48%
14 | COc1ccc(CCN(C)S(=O)(=O)c2ccc(OC)c(OC)c2)cc1OC | 31.1 | 36.1 | 12 | Stable | 16.4 | Stable | –
15 | COc1ccc(CCN(C)S(=O)(=O)c2ccc(-c3ccccc3)cc2)cc1OC | 56.3 | 46.8 | 7.1 | Stable | 26.6 | Stable | inhibition in vivo at 6.25 µmol/kg (Mus musculus [10]): 95%; inhibition in vivo at 6.25 µmol/kg (Mus musculus [11]): 22.2%; inhibition in vivo at 25 µmol/kg (Mus musculus [12]): 80%; Emax (Homo sapiens [13]): 65%; inhibition in vivo at 25 µmol/kg (Mus musculus [14]): 55.1%; IC50 [15]: 20.8 µM; Emax [16]: 60%
16 | CC(=O)Oc1ccccc1C(=O)O [ASPIRIN] | – | – | – | – | – | – | Drug absorption [1]: 47.36%; Papp (in vitro [2]): 3.8 ×10⁻⁶ cm/s; Papp at 8 h (in vitro [3]): 1.69 ×10⁻⁶ cm/s
17 | COc1ccc(S(=O)(=O)N(C)/N=C/c2ccc(OC)c(OC)c2)cc1 | 12.8 | 31.5 | < 5 | Unstable | 43 | Stable | –
18 | COc1ccc(/C=N/NS(=O)(=O)c2ccccc2)cc1OC | < 5 | 11.9 | < 5 | Unstable | 14.6 | Stable | –
19 | O=C(O)c1cc(/N=N/c2ccc(S(=O)(=O)Nc3ccccn3)cc2)ccc1O [SULFASALAZINE] | – | – | – | – | – | – | Papp (in vitro [2]): 0.3 ×10⁻⁶ cm/s; Papp at 8 h (in vitro [3]): 0.45 ×10⁻⁶ cm/s
20 | COc1ccc(/C=N/N(C)S(=O)(=O)c2ccccc2C)cc1OC | 26.1 | 16.2 | < 5 | Unstable | 39.3 | Stable | –
21 | O=C(Nc1c(Cl)cncc1Cl)c1ccc(OC(F)F)c(OCC2CC2)c1 [ROFLUMILAST] | – | – | – | – | – | – | Drug absorption [1]: 86.58%; Papp at 2.75 h (in vitro [20]): 8.05 ×10⁻⁶ cm/s; Papp at 8 h (in vitro [3]): 5.28 ×10⁻⁶ cm/s
22 | COc1ccc(C2CNC(=O)C2)cc1OC1CCCC1 (configuration not stated) [ROLIPRAM] | – | – | – | – | – | – | EC50 (Trachea [17]): 0.0263 µM; EC50 (Trachea [18]): 0.0316 µM; EC50 (Trachea [19]): 0.0646 µM; EC50 (Trachea [22]): 0.0692 µM
23 | O=c1ccc2ccccc2o1 [COUMARIN] | – | – | – | – | – | – | Drug absorption [1]: 99.98%; Papp at 8 h (in vitro [3]): 22.6 ×10⁻⁶ cm/s
24 | C[C@]12C=CC(=O)C=C1CC[C@@H]1[C@@H]2C(=O)C[C@@]2(C)[C@H]1CC[C@]2(O)C(=O)CO [PREDNISONE] | – | – | – | – | – | – | Papp at 8 h (in vitro [3]): 3.09 ×10⁻⁶ cm/s
25 | COc1ccc(S(=O)(=O)N(C)CCc2ccc(OC)c(OC)c2)cc1 | 35.6 | 43 | 33 | Stable | 23.5 | Stable | –
26 | COc1ccc(/C=N/NS(=O)(=O)c2ccccc2C)cc1OC | 15.9 | 8 | < 5 | Unstable | 19.5 | Stable | –
27 | COc1ccc(CCN(C)S(=O)(=O)c2ccc([N+](=O)[O-])cc2)cc1OC | < 5 | < 5 | < 5 | Stable | 19 | Stable | –
28 | COc1ccc(CCNS(=O)(=O)c2ccc(-c3ccccc3)cc2)cc1OC | 10.8 | 14.8 | < 5 | Stable | < 5 | Stable | –
29 | COc1ccc(CCN(C)S(=O)(=O)c2ccc3ccccc3c2)cc1OC | 50.1 | 89.9 | 12.2 | Stable | 30.1 | Stable | inhibition in vivo at 6.25 µmol/kg (Mus musculus [10]): 95%; inhibition in vivo at 6.25 µmol/kg (Mus musculus [11]): 0%; inhibition in vivo at 25 µmol/kg (Mus musculus [12]): 97%; IC50 [21]: 3 µM; Emax (Homo sapiens [13]): 97%; inhibition in vivo at 25 µmol/kg (Mus musculus [14]): 58.9%; IC50 [15]: 35.3 µM; Emax [16]: 63%
30 | Nc1nc2c(ncn2COCCO)c(=O)[nH]1 [ACYCLOVIR] | – | – | – | – | – | – | Papp at 8 h (in vitro [3]): 0.08 ×10⁻⁶ cm/s
31 | O=C(O)Cc1ccccc1Nc1c(Cl)cccc1Cl [DICLOFENAC] | – | – | – | – | – | – | Drug absorption [1]: 99.28%
